Consider 16 compounds from patent US9796711B2, “Substituted pyrazolo[3,4-b]pyridin-6-carboxylic acids and method of use” (AbbVie S.àr.l., priority 2015, dated 2017).

Assay [1] deals with T1, ΔF508-CFTR (Homo sapiens, UniProt P13569, DEL508-508).
T1 construct: host or cells: CFBE41o-, doxycycline-inducible
In words: CFTR cell surface levels using HRP-tagged ΔF508-CFTR expressing CFBE cells, in the presence of a co-corrector. The following applies: HRP-tagged ΔF508-CFTR expressing CFBE cells, in the presence of 3 μM co-corrector; for EC50: read-out: EC50. The format is cell-based. Put shortly:
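Cells were seeded with 0.5 μg/mL doxycycline and held 68 h at 37 °C. Test compounds plus 3 μM co-corrector (final 0.1% DMSO) were then added for 20 h at 33 °C. Washed cells received HRP substrate, and luminescence was normalized between DMSO and 3 μM co-corrector controls.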

For assay [2], the target named is T1, ΔF508-CFTR. In words: CFTR cell surface levels using HRP-tagged ΔF508-CFTR expressing CFBE cells, intrinsic corrector capacity. The following applies: for EC50: read-out: EC50. The format is cell-based. The essentials:
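Here the cells express ΔF508-CFTR with horseradish peroxidase inserted in extracellular loop 4, so only rescued channel at the surface gives luminescent signal. Compounds act on their own, 20 h at the reduced temperature of 33 °C; values are percent activity relative to DMSO and a 3 μM corrector.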

[3] abbreviates: HRP-tagged ΔF508-CFTR expressing CFBE cells, intrinsic corrector capacity (no co-corrector), 33° C., 20 hours.
[4] abbreviates: HRP-tagged ΔF508-CFTR CFBE41o- cells, compounds alone (intrinsic corrector capacity), 20 hours at 33° C., positive control 3 μM corrector.
Setting [5] is: HRP-tagged ΔF508-CFTR CFBE41o- cells, compounds alone (intrinsic corrector capacity), 20 hours at 33° C.
The mark [6] stands for this setting: HRP-tagged ΔF508-CFTR CFBE cells, compound alone (intrinsic corrector capacity), 20 hours at 33° C.

The EC50 is the midpoint of the concentration-response curve.

Structures are written as SMILES.

T1 sequence (P13569 with tags, fused parts or gaps DEL508-508): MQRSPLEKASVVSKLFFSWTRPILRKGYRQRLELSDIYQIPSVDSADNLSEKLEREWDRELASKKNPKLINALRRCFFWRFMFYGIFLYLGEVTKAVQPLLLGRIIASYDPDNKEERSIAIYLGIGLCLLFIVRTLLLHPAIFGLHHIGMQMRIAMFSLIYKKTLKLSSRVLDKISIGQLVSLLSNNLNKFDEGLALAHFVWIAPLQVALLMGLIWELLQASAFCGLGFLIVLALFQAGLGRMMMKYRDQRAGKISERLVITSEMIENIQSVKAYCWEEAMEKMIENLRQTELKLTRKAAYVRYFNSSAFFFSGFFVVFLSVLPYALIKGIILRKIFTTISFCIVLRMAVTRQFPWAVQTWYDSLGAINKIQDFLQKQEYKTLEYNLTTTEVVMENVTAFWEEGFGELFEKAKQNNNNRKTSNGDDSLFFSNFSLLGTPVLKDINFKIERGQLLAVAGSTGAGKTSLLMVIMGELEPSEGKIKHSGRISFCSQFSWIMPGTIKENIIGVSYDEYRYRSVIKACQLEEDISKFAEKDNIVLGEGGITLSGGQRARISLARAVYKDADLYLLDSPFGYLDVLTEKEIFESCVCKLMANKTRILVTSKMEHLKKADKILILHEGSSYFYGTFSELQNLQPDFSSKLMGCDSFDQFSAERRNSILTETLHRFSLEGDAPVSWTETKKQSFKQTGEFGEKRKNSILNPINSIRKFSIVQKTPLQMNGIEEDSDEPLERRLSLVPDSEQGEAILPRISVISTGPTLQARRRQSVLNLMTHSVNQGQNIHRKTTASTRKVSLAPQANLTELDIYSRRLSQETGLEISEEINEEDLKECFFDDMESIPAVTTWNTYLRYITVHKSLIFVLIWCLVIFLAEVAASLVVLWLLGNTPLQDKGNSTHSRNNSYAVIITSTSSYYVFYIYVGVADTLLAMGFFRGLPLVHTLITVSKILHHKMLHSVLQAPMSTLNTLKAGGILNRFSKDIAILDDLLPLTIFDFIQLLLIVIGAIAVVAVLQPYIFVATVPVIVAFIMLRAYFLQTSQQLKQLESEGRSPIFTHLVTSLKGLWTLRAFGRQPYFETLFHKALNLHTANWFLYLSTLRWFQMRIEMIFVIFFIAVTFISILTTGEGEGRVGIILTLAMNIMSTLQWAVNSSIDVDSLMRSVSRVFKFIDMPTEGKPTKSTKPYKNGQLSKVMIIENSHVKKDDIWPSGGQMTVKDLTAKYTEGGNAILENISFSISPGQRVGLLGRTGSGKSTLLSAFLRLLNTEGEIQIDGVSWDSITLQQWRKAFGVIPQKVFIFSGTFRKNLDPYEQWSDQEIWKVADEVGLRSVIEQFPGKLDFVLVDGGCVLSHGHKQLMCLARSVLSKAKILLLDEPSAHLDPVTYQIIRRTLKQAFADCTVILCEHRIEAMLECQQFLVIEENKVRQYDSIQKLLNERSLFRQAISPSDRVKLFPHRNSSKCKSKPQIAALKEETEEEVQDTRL

As for `CC1OCC(Oc2cc(C(=O)O)nc3c2c(C2CCC2)nn3-c2ccccc2)CO1` (stereo not shown) [compound 493, 3-cyclobutyl-4-[(2-methyl-1,3-dioxan-5-yl)oxy]-1-phenyl-1H-pyrazolo[3,4-b]pyridine-6-carboxylic acid], the “% Activation” value turned out to be 286.5% at ΔF508-CFTR [1] and 129.05% at ΔF508-CFTR [2] (setting [3]). Besides, the EC50 on ΔF508-CFTR [1] was found to be 396 nM; at ΔF508-CFTR [2] (setting [3]) it was 645 nM.

For `CS(=O)(=O)[C@@H]1CCN(c2cc(C(=O)O)nc3c2c(C2CCC2)nn3-c2ccccc2)C1` [compound 467, 3-cyclobutyl-4-[(3R)-3-(methanesulfonyl)pyrrolidin-1-yl]-1-phenyl-1H-pyrazolo[3,4-b]pyridine-6-carboxylic acid], the figures for the “% Activation” value on ΔF508-CFTR [1] and at ΔF508-CFTR [2] (setting [3]) were 274.35% and 97.95%, respectively. Moreover, the EC50 at ΔF508-CFTR [1] and on ΔF508-CFTR [2] (setting [3]) was 3340 nM throughout.

As to `CC(C)(C)c1nn(C2CCCC2)c2nc(C(=O)O)cc(-c3cnc(N4CCOCC4)nc3)c12` [compound 100, 3-tert-butyl-1-cyclopentyl-4-[2-(morpholin-4-yl)pyrimidin-5-yl]-1H-pyrazolo[3,4-b]pyridine-6-carboxylic acid], the “% Activation” value on ΔF508-CFTR [1] was 310%; on ΔF508-CFTR [2] (setting [4]), 115.7%. The EC50 stood at 457 nM at ΔF508-CFTR [1] and 981 nM on ΔF508-CFTR [2] (setting [5]).

`CC(C)c1nn(-c2cc(N3CCOCC3)ccn2)c2nc(C(=O)O)cc(-c3ccc(N4CCOCC4)cc3)c12` [compound 241, 4-[4-(morpholin-4-yl)phenyl]-1-[4-(morpholin-4-yl)pyridin-2-yl]-3-(propan-2-yl)-1H-pyrazolo[3,4-b]pyridine-6-carboxylic acid]: the “% Activation” value on ΔF508-CFTR [1] is reported as 259.75%; on ΔF508-CFTR [2] (setting [4]), 60.46%. The EC50 worked out at 2140 nM on ΔF508-CFTR [1] and 3340 nM at ΔF508-CFTR [2] (setting [5]).

As for `CC(C)c1nn(C2CCCCC2)c2nc(C(=O)O)cc(-c3ccc(N4CCCC(F)C4)nc3)c12` (stereo not shown) [compound 223, 1-cyclohexyl-4-[6-(3-fluoropiperidin-1-yl)pyridin-3-yl]-3-(propan-2-yl)-1H-pyrazolo[3,4-b]pyridine-6-carboxylic acid], the “% Activation” value is on record as 484.45% at ΔF508-CFTR [1] and 246.95% on ΔF508-CFTR [2] (setting [4]). Also, the results for the EC50 at ΔF508-CFTR [1] and at ΔF508-CFTR [2] (setting [5]) were 687 nM and 714 nM, respectively.

With `O=C(O)c1cc(N2CCCCCC2)c2c(C3CCC3)nn(-c3ccccc3)c2n1` [compound 473, 4-(azepan-1-yl)-3-cyclobutyl-1-phenyl-1H-pyrazolo[3,4-b]pyridine-6-carboxylic acid], at ΔF508-CFTR [1], the “% Activation” value stood at 280.9% and the half-maximal effective concentration (EC50) is 545 nM. Besides, at ΔF508-CFTR [2] (setting [3]), the “% Activation” value is 102.9% and the EC50 was found to be 1020 nM.

Consider `CC(C1CCN(c2cc(C(=O)O)nc3c2c(C2CCC2)nn3-c2ccc(F)cc2)CC1)N1CCOCC1` (stereo not shown) [compound 805, 3-cyclobutyl-1-(4-fluorophenyl)-4-{4-[1-(morpholin-4-yl)ethyl]piperidin-1-yl}-1H-pyrazolo[3,4-b]pyridine-6-carboxylic acid], for which, on ΔF508-CFTR [1], the “% Activation” value was found to be 671% and the EC50 amounted to 47.4 nM. At ΔF508-CFTR [2] (setting [3]), the “% Activation” value worked out at 364% and the concentration for a half-maximal effect (EC50) stood at 72.7 nM.

As to `COCC1CCN(c2cc(C(=O)O)nc3c2c(C2CCC2)nn3-c2ccccc2)CC1` [compound 405, 3-cyclobutyl-4-[4-(methoxymethyl)piperidin-1-yl]-1-phenyl-1H-pyrazolo[3,4-b]pyridine-6-carboxylic acid], on ΔF508-CFTR [1], the “% Activation” value is 512.4% and the EC50 turned out to be 226 nM. Moreover, on ΔF508-CFTR [2] (setting [3]), the “% Activation” value came out at 298.75% and the EC50 was determined as 347 nM.

In the case of `CC(C)c1nn(-c2cccc(C(F)(F)F)c2)c2nc(C(=O)O)cc(-c3ccc(N4CCC(C#N)CC4)cc3)c12` [compound 261, 4-[4-(4-cyanopiperidin-1-yl)phenyl]-3-(propan-2-yl)-1-[3-(trifluoromethyl)phenyl]-1H-pyrazolo[3,4-b]pyridine-6-carboxylic acid], the entries for the “% Activation” value on ΔF508-CFTR [1] and at ΔF508-CFTR [2] (setting [4]) were 519.37% and 314.07%, respectively. For the same compound, the EC50 on ΔF508-CFTR [1] came to 553 nM; on ΔF508-CFTR [2] (setting [5]) it was 702 nM.

As to `COc1cc(F)cc(-n2nc(C3CCC3)c3c(N4CCC(N5CCOCC5)CC4)cc(C(=O)O)nc32)c1` [compound 913, 3-cyclobutyl-1-(3-fluoro-5-methoxyphenyl)-4-[4-(morpholin-4-yl)piperidin-1-yl]-1H-pyrazolo[3,4-b]pyridine-6-carboxylic acid], the “% Activation” value is recorded as 531.4% on ΔF508-CFTR [1] and 326.3% at ΔF508-CFTR [2] (setting [6]). The 50% effective concentration (EC50) at ΔF508-CFTR [1] was 163 nM; on ΔF508-CFTR [2] (setting [6]) it was 1150 nM.

`Cc1nn(-c2ccccc2)c2nc(C(=O)O)cc(-c3ccc(N4CC[C@H](C#N)C4)cc3)c12` [compound 155, 4-{4-[(3S)-3-cyanopyrrolidin-1-yl]phenyl}-3-methyl-1-phenyl-1H-pyrazolo[3,4-b]pyridine-6-carboxylic acid]: the “% Activation” value amounted to 399.6% on ΔF508-CFTR [1] and 203.65% at ΔF508-CFTR [2] (setting [4]). For the same compound, the EC50 on ΔF508-CFTR [1] worked out at 909 nM; at ΔF508-CFTR [2] (setting [5]), 1350 nM.

As to `CN1CCCN(CCOc2cc(C(=O)O)nc3c2c(C2CCC2)nn3-c2ccccc2)CC1` [compound 644, 3-cyclobutyl-4-[2-(4-methyl-1,4-diazepan-1-yl)ethoxy]-1-phenyl-1H-pyrazolo[3,4-b]pyridine-6-carboxylic acid], at ΔF508-CFTR [1], the “% Activation” value was found to be 196.3% and the 50% effective concentration (EC50) was 3330 nM. Further, on ΔF508-CFTR [2] (setting [3]), the “% Activation” value worked out at 42.75% and the EC50 turned out to be 3330 nM.

Consider `O=C(O)c1cc(N2CCC(N3CCOCC3)CC2)c2c(C3CCC3)nn(-c3ccnc(OCC4CCOCC4)c3)c2n1` [compound 919, 3-cyclobutyl-4-[4-(morpholin-4-yl)piperidin-1-yl]-1-{2-[(oxan-4-yl)methoxy]pyridin-4-yl}-1H-pyrazolo[3,4-b]pyridine-6-carboxylic acid], for which, at ΔF508-CFTR [1], the “% Activation” value came to 416.35% and the EC50 was 256 nM. Besides, at ΔF508-CFTR [2] (setting [6]), the “% Activation” value worked out at 198.2% and the EC50 was 490 nM.

Turning to `Cc1nn(-c2ccccc2)c2nc(C(=O)O)cc(N3CCCOCC3)c12` [compound 315, 3-methyl-4-(1,4-oxazepan-4-yl)-1-phenyl-1H-pyrazolo[3,4-b]pyridine-6-carboxylic acid], the results for the “% Activation” value at ΔF508-CFTR [1] and on ΔF508-CFTR [2] (setting [4]) were 150.3% and 24.61%, respectively. The values for the EC50 at ΔF508-CFTR [1] and at ΔF508-CFTR [2] (setting [5]) were 4170 nM and 3430 nM, respectively.

Regarding `Cc1nn(-c2ccccc2)c2nc(C(=O)O)cc(-c3ccc(N4CCOC(C)(C)C4)cc3)c12` [compound 119, 4-[4-(2,2-dimethylmorpholin-4-yl)phenyl]-3-methyl-1-phenyl-1H-pyrazolo[3,4-b]pyridine-6-carboxylic acid], the results for the “% Activation” value on ΔF508-CFTR [1] and at ΔF508-CFTR [2] (setting [4]) were 413.2% and 207.25%, respectively. The figures for the concentration giving a half-maximal response (EC50) on ΔF508-CFTR [1] and on ΔF508-CFTR [2] (setting [5]) were 624 nM and 915 nM, respectively.

As for `O=C(O)c1cc(-c2ccc(N3CCOCC3)cc2)c2c(C3CCC3)nn(-c3ccc(F)c(F)c3)c2n1` [compound 350, 3-cyclobutyl-1-(3,4-difluorophenyl)-4-[4-(morpholin-4-yl)phenyl]-1H-pyrazolo[3,4-b]pyridine-6-carboxylic acid], the “% Activation” value is reported as 397.5% on ΔF508-CFTR [1] and 211% at ΔF508-CFTR [2] (setting [4]). In addition, the values for the EC50 at ΔF508-CFTR [1] and on ΔF508-CFTR [2] (setting [5]) were 316 nM and 426 nM, respectively.
